Experimental data published in ChEMBL document CHEMBL5331073, “Discovery of novel 7,7-dimethyl-6,7-dihydro-5H-pyrrolo[3,4-d]pyrimidines as ATR inhibitors based on structure-based drug design” (Eur J Med Chem, 2023).

Experiments:
MCF7 = test: Antiproliferative activity against human MCF7 cells assessed as reduction in cell viability incubated for 3 days by MTT assay; format: functional, cell-based; conditions: MCF7, 72 h
MDA-MB-231 = test: Antiproliferative activity against human MDA-MB-231 cells assessed as reduction in cell viability incubated for 3 days by MTT assay; format: functional, cell-based; conditions: MDA-MB-231, 72 h
[1] = molecular target: T1, Serine/threonine-protein kinase ATR (Homo sapiens, UniProt Q13535); test: Inhibition of ATR (unknown origin) using peptide as substrate at 0.1 uM preincubated for 10 mins followed by substrate addition by microplate reader analysis
Target sequence in this assay (Q13535 whole entry, looked up): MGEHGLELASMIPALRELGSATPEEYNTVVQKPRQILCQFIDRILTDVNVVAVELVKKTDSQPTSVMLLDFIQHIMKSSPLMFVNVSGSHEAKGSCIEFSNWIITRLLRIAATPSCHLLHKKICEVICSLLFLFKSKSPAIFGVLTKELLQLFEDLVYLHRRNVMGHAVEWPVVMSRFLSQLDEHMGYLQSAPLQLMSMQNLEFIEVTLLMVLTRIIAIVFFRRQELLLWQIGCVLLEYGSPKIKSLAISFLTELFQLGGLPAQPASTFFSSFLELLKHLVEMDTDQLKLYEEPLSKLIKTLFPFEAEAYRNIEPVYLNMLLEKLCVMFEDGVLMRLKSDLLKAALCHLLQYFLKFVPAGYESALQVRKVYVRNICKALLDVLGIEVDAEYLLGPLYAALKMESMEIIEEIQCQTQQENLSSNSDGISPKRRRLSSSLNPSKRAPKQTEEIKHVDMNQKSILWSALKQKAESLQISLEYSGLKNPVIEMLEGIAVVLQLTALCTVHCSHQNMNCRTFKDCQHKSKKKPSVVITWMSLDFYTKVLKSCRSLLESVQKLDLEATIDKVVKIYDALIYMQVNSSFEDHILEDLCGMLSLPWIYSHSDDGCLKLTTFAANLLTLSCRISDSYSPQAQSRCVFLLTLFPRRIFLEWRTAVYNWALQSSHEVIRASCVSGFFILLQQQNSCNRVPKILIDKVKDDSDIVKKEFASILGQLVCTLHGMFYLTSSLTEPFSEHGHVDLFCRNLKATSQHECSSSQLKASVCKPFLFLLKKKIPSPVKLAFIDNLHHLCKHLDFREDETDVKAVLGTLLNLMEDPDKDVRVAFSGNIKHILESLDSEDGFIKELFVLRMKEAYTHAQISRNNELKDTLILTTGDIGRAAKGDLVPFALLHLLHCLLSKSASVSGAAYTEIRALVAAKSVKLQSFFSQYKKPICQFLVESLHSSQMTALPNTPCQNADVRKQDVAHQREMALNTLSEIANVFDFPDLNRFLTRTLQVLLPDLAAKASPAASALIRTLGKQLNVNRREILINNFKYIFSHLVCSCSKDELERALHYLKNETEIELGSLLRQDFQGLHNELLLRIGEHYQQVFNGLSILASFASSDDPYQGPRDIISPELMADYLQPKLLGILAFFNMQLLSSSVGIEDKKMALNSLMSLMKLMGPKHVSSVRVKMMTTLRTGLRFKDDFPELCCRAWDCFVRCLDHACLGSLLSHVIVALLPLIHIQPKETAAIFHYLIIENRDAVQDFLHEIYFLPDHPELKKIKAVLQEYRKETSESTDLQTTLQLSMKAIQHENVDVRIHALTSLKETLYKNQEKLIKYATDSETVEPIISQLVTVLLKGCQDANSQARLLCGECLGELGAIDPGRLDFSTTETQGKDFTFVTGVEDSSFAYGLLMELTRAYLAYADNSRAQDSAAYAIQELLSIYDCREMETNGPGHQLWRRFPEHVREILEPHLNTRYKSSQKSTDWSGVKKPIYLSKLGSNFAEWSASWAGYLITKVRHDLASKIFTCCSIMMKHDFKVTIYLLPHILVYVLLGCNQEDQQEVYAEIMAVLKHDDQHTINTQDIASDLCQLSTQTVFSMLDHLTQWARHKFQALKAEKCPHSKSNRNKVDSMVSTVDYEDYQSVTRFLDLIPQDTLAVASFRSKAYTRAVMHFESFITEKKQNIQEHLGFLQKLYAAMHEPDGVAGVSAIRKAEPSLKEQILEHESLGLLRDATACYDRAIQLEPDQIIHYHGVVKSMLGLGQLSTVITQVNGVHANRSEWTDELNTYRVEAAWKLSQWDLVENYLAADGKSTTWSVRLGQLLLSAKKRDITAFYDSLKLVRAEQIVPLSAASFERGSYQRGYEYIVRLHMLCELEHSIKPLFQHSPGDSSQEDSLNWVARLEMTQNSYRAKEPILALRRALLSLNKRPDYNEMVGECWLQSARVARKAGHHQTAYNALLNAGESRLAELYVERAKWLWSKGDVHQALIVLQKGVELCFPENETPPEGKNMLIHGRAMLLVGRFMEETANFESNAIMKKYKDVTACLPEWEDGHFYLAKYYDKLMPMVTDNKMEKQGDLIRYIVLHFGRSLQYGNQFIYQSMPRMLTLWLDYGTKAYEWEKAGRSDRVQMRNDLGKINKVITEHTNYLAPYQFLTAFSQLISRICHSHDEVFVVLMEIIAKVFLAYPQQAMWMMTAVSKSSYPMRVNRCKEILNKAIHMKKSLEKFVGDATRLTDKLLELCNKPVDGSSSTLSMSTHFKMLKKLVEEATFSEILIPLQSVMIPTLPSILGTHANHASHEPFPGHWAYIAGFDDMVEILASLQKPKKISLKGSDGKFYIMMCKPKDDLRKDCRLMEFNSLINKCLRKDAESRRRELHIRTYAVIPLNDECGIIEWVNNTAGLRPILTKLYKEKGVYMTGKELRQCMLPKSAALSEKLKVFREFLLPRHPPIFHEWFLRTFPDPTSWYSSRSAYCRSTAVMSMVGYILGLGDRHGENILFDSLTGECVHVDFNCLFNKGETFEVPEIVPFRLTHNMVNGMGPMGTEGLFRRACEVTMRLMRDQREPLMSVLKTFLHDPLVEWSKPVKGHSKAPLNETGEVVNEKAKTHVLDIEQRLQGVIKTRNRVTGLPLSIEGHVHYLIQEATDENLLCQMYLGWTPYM

[2] = molecular target: T1, Serine/threonine-protein kinase ATR; test: Inhibition of ATR (unknown origin) using peptide as substrate preincubated for 10 mins followed by substrate addition by microplate reader analysis
Target sequence in this assay (Q13535 whole entry): as the sequence (Q13535 whole entry, looked up) above

LoVo [3] = test: Antiproliferative activity against ATM-deficient human LoVo cells assessed as reduction in cell proliferation incubated for 3 days by MTT assay; format: functional, cell-based; conditions: 72 h
HT-29 [4] = test: Antiproliferative activity against ATM-proficient human HT-29 cells assessed as reduction in cell proliferation incubated for 3 days by MTT assay; format: functional, cell-based; conditions: HT-29, 72 h
LoVo [5] = test: Antiproliferative activity against ATM-deficient human LoVo cells assessed as reduction in cell proliferation at 0.1 to 25 uM incubated for 3 days by MTT assay; format: functional, cell-based; conditions: dose 0.1-25 µM, time 3.0 day
HT-29 [6] = test: Antiproliferative activity against ATM-proficient human HT-29 cells assessed as reduction in cell proliferation at 0.5 to 22 uM incubated for 3 days by MTT assay; format: functional, cell-based; conditions: dose 0.5-22 µM, time 3.0 day
[7] = Half life in Sprague-Dawley rat at 1 mg/kg, iv and measured upto 24 hrs by LC-MS analysis; format: ADME, organism-based; conditions: in vivo
[8] = MRT (0 to infinity) in Sprague-Dawley rat at 1 mg/kg, iv and measured upto 24 hrs by LC-MS analysis; format: ADME, organism-based; conditions: in vivo
[9] = MRT(t) in Sprague-Dawley rat at 1 mg/kg, iv and measured upto 24 hrs by LC-MS analysis; format: ADME, organism-based; conditions: in vivo
[10] = AUC(0 to infinity) in Sprague-Dawley rat at 1 mg/kg, iv and measured upto 24 hrs by LC-MS analysis; format: ADME, organism-based; set-up: time < 24 hrs, dose 1 mg/kg, route iv; conditions: in vivo
[11] = AUCt in Sprague-Dawley rat at 1 mg/kg, iv and measured upto 24 hrs by LC-MS analysis; format: ADME, organism-based; set-up: dose 1 mg/kg, time < 24 hrs, route iv; conditions: in vivo
[12] = Clearance in Sprague-Dawley rat at 1 mg/kg, iv and measured upto 24 hrs by LC-MS analysis; format: ADME, organism-based; conditions: in vivo
[13] = Volume of distribution at steady state in Sprague-Dawley rat at 1 mg/kg, iv and measured upto 24 hrs by LC-MS analysis; format: ADME, organism-based; conditions: in vivo, read-out: Vdss
[14] = Half life in Sprague-Dawley rat at 5 mg/kg, po and measured upto 24 hrs by LC-MS analysis; format: ADME, organism-based; conditions: in vivo
[15] = Tmax in Sprague-Dawley rat at 5 mg/kg, po and measured upto 24 hrs by LC-MS analysis; format: ADME, organism-based; conditions: in vivo
[16] = Cmax in Sprague-Dawley rat at 5 mg/kg, po and measured upto 24 hrs by LC-MS analysis; format: ADME, organism-based; set-up: time < 24 hrs, dose 5 mg/kg, route po; conditions: in vivo
[17] = AUCt in Sprague-Dawley rat at 5 mg/kg, po and measured upto 24 hrs by LC-MS analysis; format: ADME, organism-based; set-up: time < 24 hrs, dose 5 mg/kg, route po; conditions: in vivo
[18] = AUC (0 to infinity) in Sprague-Dawley rat at 5 mg/kg, po and measured upto 24 hrs by LC-MS analysis; format: ADME, organism-based; set-up: time < 24 hrs, dose 5 mg/kg, route po; conditions: in vivo
[19] = MRT(t) in Sprague-Dawley rat at 5 mg/kg, po and measured upto 24 hrs by LC-MS analysis; format: ADME, organism-based; conditions: in vivo
[20] = MRT (0 to infinity) in Sprague-Dawley rat at 5 mg/kg, po and measured upto 24 hrs by LC-MS analysis; format: ADME, organism-based; conditions: in vivo
[21] = Oral bioavailability in Sprague-Dawley rat at 5 mg/kg and measured upto 24 hrs by LC-MS analysis; format: ADME, organism-based; conditions: in vivo
in vitro [22] = conditions: human, liver microsomes
in vitro [23] = conditions: rat, liver microsomes
in vitro [24] = conditions: human, liver microsomes; remark: listed apart in the source
in vitro [25] = conditions: rat, liver microsomes; remark: listed apart in the source
in vitro [26] = conditions: human, liver microsomes; remark: listed apart in the source
in vitro [27] = conditions: rat, liver microsomes; remark: listed apart in the source
[28] = molecular target: Serine/threonine-protein kinase mTOR (Homo sapiens, UniProt P42345); test: Inhibition of mTOR (unknown origin) using peptide as substrate preincubated for 10 mins followed by substrate addition by microplate reader analysis
HCT-116 = test: Antiproliferative activity against ATM-proficient human HCT-116 cells assessed as reduction in cell viability incubated for 3 days by MTT assay; format: functional, cell-based; conditions: HCT-116, 72 h
A549 = test: Antiproliferative activity against ATM-proficient human A549 cells assessed as reduction in cell viability incubated for 3 days by MTT assay; format: functional, cell-based; conditions: A549, 72 h

Row | Structure (SMILES) | inhibition [1] [%] | IC50 [2] [µM] | IC50 (LoVo [3]) [µM] | IC50 (HT-29 [4]) [µM] | half-life at 1 h, 1 µM (in vitro [22]) [h] | half-life at 1 h, 1 µM (in vitro [23]) [h] | microsomal CLint at 1 h, 1 µM (in vitro [24]) [µL/min/mg] | microsomal CLint at 1 h, 1 µM (in vitro [25]) [µL/min/mg] | CLint scaled at 1 h, 1 µM (in vitro [26]) [L/h/kg] | CLint scaled at 1 h, 1 µM (in vitro [27]) [L/h/kg] | other results
1 | O=C(c1cc(Cc2n[nH]c(=O)c3ccccc23)ccc1F)N1CCN(C(=O)C2CC2)CC1 [OLAPARIB] |  |  |  |  |  |  |  |  |  |  | IC50 (MCF7): 18.6 µM; IC50 (MDA-MB-231): 73.3 µM
2 | C[C@@H]1COCCN1c1nc(-c2cccc3[nH]ccc23)nc2c1CCNC2(C)C | 70.7 |  |  |  |  |  |  |  |  |  | 
3 | C[C@@H]1COCCN1c1nc(-c2cccc3[nH]ccc23)nc2c1CCN(Cc1ccccc1)C2(C)C | 14.6 |  |  |  |  |  |  |  |  |  | 
4 | C[C@@H]1COCCN1c1nc(-c2cccc3[nH]ccc23)nc2c1CN(C(=O)c1ccc(S(C)(=O)=O)cc1)C2(C)C |  | 0.004 | 0.092 | 0.449 | 0.428 | 3.28 | 53.9 | 7.06 | 3.05 | 0.762 | Activity (LoVo [5]): Dose-Dependent Effect; Activity (HT-29 [6]): Dose-Dependent Effect; half-life [7]: 5.49 h; MRT inf [8]: 6.99 h; MRT last at 24 h [9]: 5.21 h; AUC(0-inf) [10]: 0.646 µg·h/mL; AUC(0-t) at 24 h [11]: 0.603 µg·h/mL; clearance [12]: 1.56 L/h/kg; Vd [13]: 10.8 L/kg; half-life [14]: 4.38 h; Tmax [15]: 2 h; Cmax [16]: 0.0241 µg/mL; AUC(0-t) at 24 h [17]: 0.185 µg·h/mL; AUC(0-inf) [18]: 0.203 µg·h/mL; MRT last at 24 h [19]: 5.56 h; MRT inf [20]: 7.1 h; bioavailability [21]: 6.1%
5 | COc1ccc(C(=O)N2Cc3c(N4CCOC[C@H]4C)nc(-c4cccc5[nH]ccc45)nc3C2(C)C)cc1 |  | 0.003 | 0.128 | 0.387 | 0.158 | 0.302 | 147 | 76.6 | 8.34 | 8.28 | half-life [7]: 3.02 h; MRT inf [8]: 3.3 h; MRT last at 24 h [9]: 2.99 h; AUC(0-inf) [10]: 1.47 µg·h/mL; AUC(0-t) at 24 h [11]: 1.44 µg·h/mL; clearance [12]: 0.678 L/h/kg; Vd [13]: 2.23 L/kg; half-life [14]: 10 h; Tmax [15]: 1 h; Cmax [16]: 0.0831 µg/mL; AUC(0-t) at 24 h [17]: 0.452 µg·h/mL; AUC(0-inf) [18]: 0.729 µg·h/mL; MRT last at 24 h [19]: 7.08 h; MRT inf [20]: 11.3 h; bioavailability [21]: 6.3%
6 | CC(=O)c1ccc(C(=O)N2Cc3c(N4CCOC[C@H]4C)nc(-c4cccc5[nH]ccc45)nc3C2(C)C)cc1 |  | 0.006 | 0.096 | 0.307 | 0.0823 | 0.812 | 281 | 28.5 | 15.9 | 3.08 | Activity (LoVo [5]): Dose-Dependent Effect; Activity (HT-29 [6]): Dose-Dependent Effect
7 | CC(=O)N1CCc2c(N3CCOC[C@H]3C)nc(-c3cccc4[nH]ccc34)nc2C1(C)C | 89.9 | 0.013 | 1.26 | 4.61 | 0.188 | 0.378 | 123 | 61.4 | 6.96 | 6.6 | IC50 [28]: 0.013 µM
8 | COc1cccc(C(=O)N2Cc3c(N4CCOC[C@H]4C)nc(-c4cccc5[nH]ccc45)nc3C2(C)C)c1 |  | 0.004 | 0.151 | 0.357 | 0.447 | 1.17 | 51.6 | 20.1 | 2.93 | 2.17 | half-life [7]: 1.28 h; MRT inf [8]: 1.08 h; MRT last at 24 h [9]: 1.02 h; AUC(0-inf) [10]: 0.84 µg·h/mL; AUC(0-t) at 24 h [11]: 0.835 µg·h/mL; clearance [12]: 1.21 L/h/kg; Vd [13]: 1.3 L/kg; half-life [14]: 1.87 h; Tmax [15]: 0.667 h; Cmax [16]: 0.0862 µg/mL; AUC(0-t) at 24 h [17]: 0.323 µg·h/mL; AUC(0-inf) [18]: 0.342 µg·h/mL; MRT last at 24 h [19]: 2.7 h; MRT inf [20]: 3.08 h; bioavailability [21]: 8.1%
9 | C[C@@H]1COCCN1c1nc(-c2cccc3[nH]ccc23)nc2c1CCN(S(C)(=O)=O)C2(C)C | 88.7 | 0.018 |  |  |  |  |  |  |  |  | IC50 [28]: 0.157 µM
10 | CC(=O)c1cccc(C(=O)N2Cc3c(N4CCOC[C@H]4C)nc(-c4cccc5[nH]ccc45)nc3C2(C)C)c1 |  | 0.004 | 0.112 | 0.431 | 0.0685 | 0.192 | 339 | 121 | 19.2 | 13.1 | Activity (LoVo [5]): Dose-Dependent Effect; Activity (HT-29 [6]): Dose-Dependent Effect
11 | CC(C)n1c(=O)n(C)c2cnc3cc(F)c(-c4ccc(OCCCN5CCCCC5)nc4)cc3c21 [AZD-1390] |  |  |  | > 30 |  |  |  |  |  |  | IC50 (HCT-116): 10.5 µM; IC50 (A549): 43 µM
